Results taken from patent US5277897A, “In vivo enhancement of cellular accumulation of lipophilic cationic organometallic compounds by reduction of intramembrane potential” (Brigham and Women's Hospital, priority 1992, dated 1994).

Legend:
[1] = system: cultured chick heart cells; assay: Effect of MSA on Tc-MIBI net accumulation (FIG. 3); type: cell-based; conditions: TPB 10^-5 M, n=3
Experimental: FIG. 3. Effect of MSA on Tc-MIBI net accumulation. Preparations were incubated for the times indicated in Tc-MIBI loading buffer containing 5.4 mM KCl (.quadrature., .smallcircle.) or 5.4 mM K-MSA ( , ·; prepared by equimolar substitution of K-MSA KCl) in the absence (.quadrature., ) or presence (.smallcircle., ·) of TPB (10^-5 M). Each point represents the mean ±SEM of 3 determinations.
Control buffer was a modified Earle's balanced salt solution (MEBSS) with the following composition (mN) Na^30, 145; K^+, 5.4; Ca^2, 1.2; Mg^2+, 0.8; Cl, 152; H2 PO4, 0.8; SO4^2-, 0.8; dextrose, 5.6; HEPES, 4.0; and bovine calf serum, 1% (v/v); […]; 37° C. K-methanesulfonate was made by titration of methanesulfonic acid with KOH (Piwnica-Worms, D., et al., J. Gen. Physiol. 81:731-748 (1983)) and replaced […] in some solutions by equimolar substitution where indicated. Natetraphenylborate, CCCP, bumetanide and valinomycin were dissolved into DMSO prior to addition to buffer. DMSO alone has no significant affect on contractile activity, action potential configuration (Lieberman, M., et al., Dev. Biol. 31:380-403 (1973)) or Tc-MIBI uptake kinetics (Piwnica-Worms, D., et al., Circ. (in press)).
Monolayers of spontaneously contractile chick ventricular myocardial cells were obtained from disaggregated 10-day old chick embryo hearts by a slight modification of previously published methods (Horres, C. R., et al., In Pinson, A. (ed.), The Heart Cell in Culture, Boca Raton, CRC Press, pp. 77-108 (1987)). […] Cells were centrifuged at 400 g for 10 minutes, resuspended and combined in culture medium, counted with a hemocytometer and diluted to yield a suspension of 5×10^5 cells/ml. […]
(§1) Radioactive uptake methods have been described in detail (Piwnica-Worms, D., et al, Circ. (in press). Briefly, coverslips with confluent cells were removed from culture media and pre-equilibrated for 40-60 seconds in MEBSS buffer. Uptake and retention experiments were initiated by immersion of coverslips in 60 mm glass Pyrex dishes containing loading solution consisting of buffer with 0.1-0.6 nM [^99m Tc-MIBI] (0.01-0.4 Ci/nmole; 25-100 uCi/ml). Preparations were removed at various times and rinsed three times in 25 ml volumes of ice-cold (2° C.) isotope-free buffer for 8 seconds each to clear extracellular spaces. Preparations and aliquots of the loading buffer and stock solutions were counted in a well-type sodium iodide gamma counter after which cell protein on each coverslip was extracted in 1% sodium dodecylsulfate with 10 mM sodium borate and assayed by the method of Lowry (Lowry, O. H., et al., J. Biol. Chem. 193:265-275 (1951)). […]

[2] = system: cultured chick heart cells; assay: Influence of TPB and CCCP on (membrane potential-independent) accumulation of Tc-MIBI (FIG. 4); type: cell-based; conditions: n=3-4
Experimental: FIG. 4. […] Preparations were incubated for the times indicated in 5.4 mM Ko control loading buffer containing tracer Tc-MIBI and TPB together (Δ) or in loading buffer containing Tc-MIBI alone (.quadrature.). For the latter incubation, TPB was added to the loading buffer at the arrow and cell content of Tc-MIBI subsequently determined (o). Under each condition, CCCP was added to the loading buffers as indicated by the arrows and cell content of Tc-MIBI determined ( , , ·). Each point is the mean ±SEM of 3 determinations.
Monolayers of spontaneously contractile chick ventricular myocardial cells were obtained from disaggregated 10-day old chick embryo hearts by a slight modification of previously published methods (Horres, C. R., et al., In Pinson, A. (ed.), The Heart Cell in Culture, Boca Raton, CRC Press, pp. 77-108 (1987)). Hearts were trimmed of connective tissue and atria, finely minced and serially exposed to 0.024% (w/v) trypsin in Ca^2+ - and Mg^2+ - free Earle's salt solution for 7 minutes at 37° C. Gentle trituration and agitation on an orbital shaker bath aided disaggregation. Cells released from the first exposure were discarded and cells aspirated from the next four exposures were then added to an equal volume of trypsin deactivating solution consisting of ice-cold culture medium. Cells were centrifuged at 400 g for 10 minutes, resuspended and combined in culture medium, counted with a hemocytometer and diluted to yield a suspension of 5×10^5 cells/ml. 12 ml of suspension were incubated in 100 mm plastic culture dishes containing 7 coverslips (25 mm diameter) placed on the bottom of each dish to serve as substrate for cell growth. Cells were maintained in a humidified atmosphere of 5% CO2 /95% air for 3-4 days yielding a confluent layer of spontaneously contractile myocytes on each coverslip.
as §1, with “(1951)). Tc-MIBI binding to glass coverslips without cells was used as an estimate of non-specific adhesion to the substrate ([…] obtained with cellular preparations); this value was subtracted from total uptake determinations to derive the cell-associated counts. Use of generator equilibrium equations (Lamson, M. L., et al., i J. Nucl. Med. 16:639-641 (1975)) allowed calculation of absolute moles of Tc-MIBI in solutions and preparations. Results were therefore expressed as fmol cellular Tc-MIBI/mg protein per nM extracellular Tc-MIBI concentration.” for “(1951)).”

[C-]#[N+]CC(C)(C)OC.[C-]#[N+]CC(C)(C)OC.[C-]#[N+]CC(C)(C)OC.[C-]#[N+]CC(C)(C)OC.[C-]#[N+]CC(C)(C)OC.[C-]#[N+]CC(C)(C)OC.[Tc] [Tc-MIBI, hexakis(methoxyisobutylisonitrile)technetium(I)]
Tc-MIBI uptake ([1]; 130 mM K-MSA buffer, P=0.01): 79.3±1.1 fmol Tc-MIBI/mg protein per nM | Tc-MIBI uptake ([1]; 130 mM KCl buffer + bumetanide 10^-5 M): 63.7±3.2 fmol Tc-MIBI/mg protein per nM | Tc-MIBI 2 min uptake ([2]; +5×10^-6 M TPB, 5 seconds pre-incubation): 20.6±0.43 fmol Tc-MIBI/mg protein per nM | Tc-MIBI 2 min uptake ([2]; +10^-7 M TPB, 5 seconds pre-incubation): 3.37±0.57 fmol Tc-MIBI/mg protein per nM | Tc-MIBI 2 min uptake ([2]; control (no TPB)): 1.23±0.15 fmol Tc-MIBI/mg protein per nM
